Consider three compounds from patent US8367659B2, “Oxazinyl isoflavonoid compounds, medicaments and use” (Marshall Edwards, Inc., priority 2007, dated 2013).

Molecules are shown by their SMILES.

One test has as its system HPAC. Put plainly: Anti-cancer activity, HPAC pancreatic cancer cells (MTT). As to conditions: Homo sapiens, 120 h, 5 days. Format: cell-based.
Test [1] relates to neonatal foreskin fibroblasts (NFF). In words: Toxicity to normal cells, neonatal foreskin fibroblasts. Format: cell-based. As to conditions: Fibroblast; normal, non-transformed cells; read-out: IC50 μM, NFF Fibroblast. As for the experimental part: (§1) IC50 values were determined for each cell line. Cells were seeded in 96-well plates at an appropriate cell density as determined from growth kinetics analysis and cultured for 5 days in the absence and presence of the test compounds. Cell proliferation was assessed after the addition of 20 μl of 3-4,5 dimethylthiazol-2,5-diphenyl tetrazolium bromide (MTT, 2.5 mg/ml in PBS, Sigma) for 3-4 hrs at 37° C. according to manufacturer's instructions. IC50 values were calculated from semi-log plots of % of control proliferation on the y-axis against log dose on the x-axis.
(§2) The neonatal foreskin fibroblasts (NFF) were a gift from Dr. Peter Parsons (Queensland Institute of Medical Research). Rabbit kidney (RK-13) cells were obtained from Miller Whalley (Macquarie University). Both cell lines were cultured in RPMI supplemented with 10% FCS(CSL, Australia), penicillin (100 U/ml), streptomycin ([…]), L-glutamine (2 mM) and sodium bicarbonate (1.2 g/L), and cultured at 37° C. in a humidified atmosphere of 5% CO2. IC50 values were determined as described above.

In test [2] the test system is NO synthesis in RAW 264.7 murine macrophages. In words: LPS-induced NO synthesis in RAW 264.7 murine macrophages (Griess). The class given is cell-based, mouse. As to conditions: 10 μM; relative to vehicle alone; FIG. 6. As for the experimental part:
The mouse macrophage cell line RAW 264.7 was cultured in DMEM supplemented with foetal calf serum (FCS), […] glutamine and 50 U/ml penicillin/streptomycin. Cells were treated with either test compound (in 0.025% DMSO) or vehicle alone, and added one hour before 50 ng/ml LPS. After incubation for 24 h, culture media was collected for PGE2 or TXB2 measurement by ELISA (Cayman Chemical), and TNFα measurement using an ELISA (Becton Dickinson). Nitrite concentration is a quantitative indicator of NO production and was determined by the Griess Reaction. Briefly, 100 μL of Griess reagent was added to 50 μL of each supernatant in duplicate. The absorbance at 550 nm was measured (Molecular Devices, SpectraMax 250 microplate spectrophotometer, CA, USA), and nitrite concentrations were determined against a standard curve of sodium nitrite. The percentage nitrite inhibition was calculated as: [100−(nitrite concentration of sample/nitrite of vehicle control LPS cells)×100]. Results Test compounds were examined a concentration of 10 μM. […] Consequently, to assess the effect of test compounds on various analytes, cell viability was taken into consideration with the use of the formula: Actual effect of test compound=measured effect−(effect on cell viability×measured effect)

A further test has as its system CP70. In words: Anti-cancer activity, CP70 ovarian cancer cells (MTT). Format: cell-based. As to conditions: 120 h, 5 days.
In test [3] the test system is Rabbit kidney (RK-13) cells. In words: Toxicity to normal cells, rabbit kidney (RK-13) cells. The class given is cell-based. As to conditions: Oryctolagus cuniculus, normal, non-transformed cells, read-out: IC50 μM, RK Rabbit Kidney. As for the experimental part: as §1, §2
Test [4] can be described thus: Free radical scavenging with DPPH. As to conditions: DPPH, 20 minutes, absorbance 517 nm; Table 4; read-out: Free radical scavenging ability EC50. How it is done:
The antioxidant (free radical trapping) activity of test compounds was assessed using the stable free radical compound 2,2-diphenyl-1-picrylhydrazyl (DPPH). A stock solution of DPPH was prepared at a concentration of […] in ethanol and mixed for 10 minutes prior to use. Test compounds at a concentration of 100 μM were reacted with DPPH for, 20 minutes, alter which time the absorbance at 517 nm was determined. Initial screening of was done at 100 μM. The change in absorbance at 517 nm was compared to a reagent blank (DPPH with ethanol alone). […] The IC50 values were estimated as the concentration of test compound that caused a 0.6 change in absorbance (with 1.2 absorbance units representing total scavenging of the DPPH radical).
The antioxidant (free radical trapping) activity of test compounds was assessed using the stable free radical compound 2,2-diphenyl-1-picrylhydrazyl (DPPH). A stock solution of DPPH was prepared […] in ethanol and mixed for 10 minutes prior to use. Initial screening of test compound at a concentration of 100 μM was reacted with DPPH for 20 minutes, after which time the absorbance at 517 nm was determined. The change in absorbance was compared to a reagent blank (DPPH with ethanol alone). […] The IC50 value was estimated as the concentration of test compound that causes a 0.6 change in absorbance (with 1.2 absorbance units representing total scavenging of the DPPH radical).
On the technique in general: Loss of DPPH colour is used to gauge radical scavenging.

Another test relates to MM200. Put plainly: Anti-cancer activity, MM200 melanoma cells (MTT). The class given is cell-based. As to conditions: for IC50: 120 h, 5 days, MTT.
The target of test [5] is T1, GAL4-PPARγ fusion protein (Homo sapiens, UniProt P37231).
T1 construct: host or cells: HEK293 (human embryonic kidney), stably transfected
T1 sequence (P37231 238-503 limits assumed): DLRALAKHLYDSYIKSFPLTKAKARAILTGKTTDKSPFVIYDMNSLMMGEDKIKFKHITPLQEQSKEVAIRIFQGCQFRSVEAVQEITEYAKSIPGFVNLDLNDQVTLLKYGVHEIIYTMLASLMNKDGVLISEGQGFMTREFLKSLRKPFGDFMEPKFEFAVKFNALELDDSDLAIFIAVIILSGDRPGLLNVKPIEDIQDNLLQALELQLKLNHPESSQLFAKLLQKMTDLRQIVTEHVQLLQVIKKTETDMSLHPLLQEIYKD
T1 sequence (P04386 1-147 partner limits assumed): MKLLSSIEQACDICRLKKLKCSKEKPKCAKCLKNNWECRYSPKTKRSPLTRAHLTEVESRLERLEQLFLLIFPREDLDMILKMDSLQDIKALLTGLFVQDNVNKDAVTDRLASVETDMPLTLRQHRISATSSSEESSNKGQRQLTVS
Put plainly: PPARγ activity in transfected HEK293 cells (beta-lactamase reporter). The class given is cell-based. As to conditions: FIG. 13: 1 μM. As for the experimental part:
Human HEK293 cells, stably transfected with the PPARγ ligand binding domain fused with the DNA binding domain of the GAL4 protein (GAL4-PPARγ fusion protein), produce beta-lactamase when incubated with PPARγ ligands. Transfected human kidney embryonic cells (Invitrogen Inc., Carlsbad, Calif.) were seeded onto matrigel in 96-well plates and allowed to attach overnight. The following day, vehicle alone (DMSO) or test compound at 1, 5 and 10 μM was added at varying concentrations to cells and incubated for 16-18 hours. Cells were then loaded with a FRET-based fluorescent substrate to assess beta-lactamase activity. Cells were protected from light, and incubated at room temperature for 2 h. Plates were read on a fluorescence plate reader with an excitation wavelength of 409 nm and emission wavelengths of 460 nm and 530 nm. Results were expressed as a ratio of these two wavelengths after the background (cell-free control wells) had been subtracted. PPARγ activity was thus determined by measuring beta-lactamase activity as assessed by a fluorescent product to substrate ratio.

The test system of test [6] is human umbilical vein smooth muscle cells (HUVSMC). In words: Proliferation of human umbilical vein smooth muscle cells (MTT). As to conditions: 10 μM; 10% FCS, 5 days; FIG. 8. Format: cell-based. As for the experimental part:
The effect of test compounds on human umbilical vein smooth muscle cells (HUVSMC) was examined. Cells were seeded into 96 well plates at a low seeding rate of 1.6×10^3 cells per well, and allowed to attach for 24 hours. The cells were then washed twice with medium without FCS and incubated in medium without FCS for 20 hours to serum starve them. Analogue was prepared in medium without FCS at 20 μM and added to the plates and incubated for one hour. Final analogue concentration was therefore 10 μM. The cells were then stimulated by adding medium +20% FCS, to give a final FCS concentration of 10%. The cells were incubated until the control cells i.e. those with FCS and no compound, were just confluent (5 days). An MTT assay was performed, and difference in absorbance in analogue treated cells from the control was calculated using the formula: test/control*100−100. Results
The effect of test compounds on human umbilical vein smooth muscle cells (HUVSMC), was examined. Cells, tissue explants from a neonate (HRI—passage 2), were seeded into 96 well plates at 1×10^3 cells per well, and allowed to attach for 24 hours. They were then washed twice and incubated in medium without foetal calf serum (FCS) for 24-48 hours to serum-starve them. Test compounds were prepared in medium without FCS and added to the plates and incubated for one hour. Medium with FCS was added to give a final concentration of 10% and the plates incubated for 4-5 days until the controls were just confluent.

Test [7] has as its system TXB2 synthesis in RAW 264.7 murine macrophages. In words: LPS-induced TXB2 synthesis in RAW 264.7 murine macrophages. The class given is cell-based, mouse. As to conditions: 10 μM; relative to vehicle alone; FIG. 4. As for the experimental part:
(§3) The mouse macrophage cell line RAW 264.7 was cultured in DMEM supplemented with foetal calf serum (FCS), […] glutamine and 50 U/ml penicillin/streptomycin. Cells were treated with either test compound (in 0.025% DMSO) or vehicle alone, and added one hour before 50 ng/ml LPS. After incubation for 24 h, culture media was collected for PGE2 or TXB2 measurement by ELISA (Cayman Chemical), and TNFα measurement using an ELISA (Becton Dickinson). Test compounds were examined a concentration of 10 μM. […] Consequently, to assess the effect of test compounds on various analytes, cell viability was taken into consideration with the use of the formula: Actual effect of test compound=measured effect−(effect on cell viability×measured effect)

The test system of test [8] is PGE2 synthesis in RAW 264.7 murine macrophages. Put plainly: LPS-induced PGE2 synthesis in RAW 264.7 murine macrophages. Format: cell-based, mouse. As to conditions: 10 μM; relative to vehicle alone; FIG. 3. As for the experimental part:
as §3

The next test relates to cancer cell lines. In words: Anti-cancer activity, cancer cell lines tested as a group (MTT). As to conditions: CP70, HPAC and MM200. The class given is cell-based.

Turning to `CCCN1COc2cc3c(cc2C1)C=C(c1ccc(O)cc1)CO3` [Compound 3, 4-(3-Propyl-2,3,4,8-tetrahydrochromeno[6,7-e][1,3]oxazin-7-yl)phenol], the IC50 was found to be 32.2 µM with HPAC; 56.2 ± 12.6 µM in [1]; 30.7 ± 22 µM with CP70; 4.8 µM in test [3]; 8.9 ± 0.1 µM in the test on MM200. In addition, the “mean change of LPS-induced NO synthesis” value in test [2] was “greatest inhibition”. In addition, the EC50 in test [4] turned out to be 20 µM. Also, the “toxicity to the MM200 melanoma cell line” value in the test with MM200 is on record as “selectively toxic”.
Take `Oc1ccc(C2=Cc3cc4c(cc3OC2)OCN(c2ccccc2)C4)cc1` [Compound 7, 4-(3-Phenyl-2,3,4,8-tetrahydrochromeno[6,7-e][1,3]oxazin-7-yl)phenol]: the “PPARγ activation, increase in beta-lactamase activity over media only control” value in [5] was “PPARγ agonist activity”. For the same compound, the IC50 with HPAC is 48.8 µM; in test [1], 48.8 ± 12.2 µM; in the test on CP70, 9.98 ± 0.5 µM; in test [3] it was 56.6 µM; in the test on MM200, 36.3 ± 6 µM. In addition, the “mean change of LPS-induced NO synthesis” value in [2] is “greatest inhibition”. Further, in test [4], the EC50 amounted to 22.5 µM. In addition, the “effect on proliferation of HUVSMCs induced by FCS” value in test [6] is on record as “significantly inhibited the proliferation”.
Take `COc1ccc(C2=C(c3ccc(O)cc3)COc3cc4c(cc32)CN(Cc2ccc(Cl)cc2)CO4)cc1` [Compound 24, 4-(3-(4-Chlorobenzyl)-6-(4-methoxyphenyl)-2,3,4,8-tetrahydrochromeno[6,7-e][1,3]oxazin-7-yl)-phenol]: the “mean change of LPS-induced TXB2 synthesis” value in [7] was “greatest inhibition”. Besides, the concentration for half-maximal inhibition (IC50) was determined as 6.83 µM in the test with HPAC, 8.6 µM with CP70 and 14.6 µM in the test on MM200. Besides, in test [2], the “mean change of LPS-induced NO synthesis” value is “greatest inhibition”. The “mean change of LPS-induced PGE2 synthesis” value in [8] was “greatest inhibition”. Also, the EC50 in test [4] worked out at 24 µM. Besides, the “activity against CP70, HPAC and MM200 cell lines” value in the test on cancer cell lines is given as “active”.

In general, IC50 refers to the midpoint of a concentration-inhibition curve. Usually EC50 stands for the midpoint of the concentration-response curve.
